Earlier results, collected in US7691599B2, “Mammalian genes involved in viral infection and tumor suppression” (Zirus, Inc., priority 2002, dated 2010).
Like-named read-outs stand apart in the source and are kept apart here.

What was measured:
[1] = for plasma concentration at 3 h: 3 h after single oral dose of 300 mg V11294A; for AUC(0, infinity) / t½ / Cmax: plasma; for AUC(0, infinity) / t½: single oral dose of 300 mg V11294A; for Cmax: single oral fasting dose of 300 mg V11294A, mean +/− s.d.
[2] = system: tumour necrosis factor (TNF) release in whole blood
[3] = system: mononuclear cell proliferation; conditions: whole blood, 3 h (P<<0.05)
[4] = target: T1, I747T mutant NR3C1 (glucocorticoid receptor) (Homo sapiens, UniProt P04150, I747T)
T1 sequence (P04150 1-777 I747T): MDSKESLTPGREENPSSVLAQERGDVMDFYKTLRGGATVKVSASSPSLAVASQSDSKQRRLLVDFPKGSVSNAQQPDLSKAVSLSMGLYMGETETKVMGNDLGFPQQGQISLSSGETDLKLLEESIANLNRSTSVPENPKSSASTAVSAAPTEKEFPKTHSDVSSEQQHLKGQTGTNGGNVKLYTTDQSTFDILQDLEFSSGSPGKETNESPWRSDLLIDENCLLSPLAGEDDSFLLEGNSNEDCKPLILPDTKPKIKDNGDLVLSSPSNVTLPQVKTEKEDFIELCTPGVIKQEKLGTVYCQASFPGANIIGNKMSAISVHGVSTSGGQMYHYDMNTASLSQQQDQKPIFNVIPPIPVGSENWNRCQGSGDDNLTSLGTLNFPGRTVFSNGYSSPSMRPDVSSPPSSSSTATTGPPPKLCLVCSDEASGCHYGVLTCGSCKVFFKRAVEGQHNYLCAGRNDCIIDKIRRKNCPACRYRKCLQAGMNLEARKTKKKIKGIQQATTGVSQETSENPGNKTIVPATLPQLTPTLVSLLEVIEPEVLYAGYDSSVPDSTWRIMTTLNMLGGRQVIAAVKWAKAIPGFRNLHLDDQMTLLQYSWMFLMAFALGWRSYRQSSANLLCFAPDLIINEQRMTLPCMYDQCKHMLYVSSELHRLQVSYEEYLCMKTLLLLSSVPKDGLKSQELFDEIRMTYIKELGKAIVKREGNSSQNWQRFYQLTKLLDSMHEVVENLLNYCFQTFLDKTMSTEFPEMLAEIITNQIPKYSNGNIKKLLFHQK

monoamine oxidase type A = target: T2, monoamine oxidase type A (Mus musculus, UniProt Q64133); conditions: transgenic mice with reduced glucocorticoid receptor function
T2 construct: from tissue; host or cells: whole animal: transgenic mice expressing antisense RNA against glucocorticoid receptor mRNA
T2 sequence (Q64133 1-526): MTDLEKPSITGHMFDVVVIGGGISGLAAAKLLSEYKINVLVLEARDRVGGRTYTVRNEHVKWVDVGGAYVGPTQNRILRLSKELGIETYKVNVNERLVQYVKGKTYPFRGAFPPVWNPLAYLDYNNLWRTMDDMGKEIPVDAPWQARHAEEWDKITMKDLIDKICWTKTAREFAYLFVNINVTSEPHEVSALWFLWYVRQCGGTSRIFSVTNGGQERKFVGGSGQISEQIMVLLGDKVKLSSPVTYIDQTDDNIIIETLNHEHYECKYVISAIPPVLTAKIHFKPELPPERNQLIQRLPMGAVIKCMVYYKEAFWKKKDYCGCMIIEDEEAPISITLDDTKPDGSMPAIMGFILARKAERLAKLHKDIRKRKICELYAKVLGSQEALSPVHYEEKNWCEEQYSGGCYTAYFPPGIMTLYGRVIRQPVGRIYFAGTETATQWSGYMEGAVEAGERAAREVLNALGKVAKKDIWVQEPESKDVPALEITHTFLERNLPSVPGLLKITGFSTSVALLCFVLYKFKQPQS

ADAM 10 = target: T3, ADAM 10 (Bos taurus, UniProt Q10741); conditions: ADAM 10 purified from bovine spleen membranes
T3 construct: purified a protease with characteristics of TNFalpha convertase from bovine spleen membranes; from tissue; host or cells: bovine spleen membranes
T3 sequence (Q10741 214-748): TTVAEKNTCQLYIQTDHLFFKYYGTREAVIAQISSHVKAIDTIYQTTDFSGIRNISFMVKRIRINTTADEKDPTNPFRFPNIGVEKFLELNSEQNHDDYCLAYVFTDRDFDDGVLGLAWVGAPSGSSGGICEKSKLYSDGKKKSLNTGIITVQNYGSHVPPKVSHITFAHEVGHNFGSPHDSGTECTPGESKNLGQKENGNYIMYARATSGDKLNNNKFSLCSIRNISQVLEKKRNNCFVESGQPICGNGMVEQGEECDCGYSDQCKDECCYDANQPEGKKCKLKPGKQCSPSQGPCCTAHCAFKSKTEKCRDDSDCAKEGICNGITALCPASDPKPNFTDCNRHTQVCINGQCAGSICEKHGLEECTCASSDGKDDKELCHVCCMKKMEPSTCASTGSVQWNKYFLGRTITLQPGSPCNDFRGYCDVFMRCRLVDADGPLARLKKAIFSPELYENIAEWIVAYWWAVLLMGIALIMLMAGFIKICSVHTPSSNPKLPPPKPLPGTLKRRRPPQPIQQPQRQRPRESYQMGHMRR

SMILES	plasma concentration at 3 h [1] [ng/mL]	AUC(0, infinity) [1] [ng·h/mL]	t½ [1] [h]	Cmax ([1]; healthy volunteers) [ng/mL]	transactivation by I747T mutant NR3C1 [4]	other results
CCNc1ncn(Cc2ccc(OC)c(OC3CCCC3)c2)c2nc(C(C)C)nc1-2.Cl [V11294A, 3-(3-cyclopentyloxy-4-methoxybenzyl)-6-ethylamino-8-isopropyl-3H purine hydrochloride]	1300 ± 330	18100 ± 6100	9.7 ± 3.9	1398 ± 298	–	adverse reactions ([1]; single oral administration, 300 mg, healthy volunteers): No adverse reactions were noted; LPS-induced TNF release ([2]; 3 h post ingestion (P<<0.001)): significant reduction; LPS-induced TNF release ([2]; 24 h post ingestion (P<<0.05)): significant reduction; amount of TNF released in response to LPS ([2]; LPS 4 ng ml−1, whole blood, 3 h postdose (before 778+/−87, P=0.02)): 566 ± 72 pmol/mL; PHA-induced proliferation [3]: inhibited
C[C@]12C[C@H](O)[C@H]3[C@@H](CCC4=CC(=O)CC[C@@]43C)[C@@H]1CC[C@@H]2C(=O)CO [corticosterone]	–	–	–	–	completely inactive	–
C[C@]12CCC(=O)C=C1CC[C@@H]1[C@@H]2[C@@H](O)C[C@@]2(C)[C@H]1CC[C@]2(O)C(=O)CO [cortisol]	–	–	–	–	completely inactive	–
O=C(NCCN1CCOCC1)c1ccc(Cl)cc1 [moclobemide]	–	–	–	–	–	behavioral deficits (monoamine oxidase type A): reversed the behavioral deficits
CC(C)C[C@H](NP(=O)(O)O[C@@H]1O[C@@H](C)[C@H](O)[C@@H](O)[C@H]1O)C(=O)N[C@@H](Cc1c[nH]c2ccccc12)C(=O)O [phosphoramidon]	–	–	–	–	–	sensitivity of the enzyme to inhibitor (ADAM 10): insensitive
COc1ccc(Cn2cnc(N)c3nc(C(C)C)nc2-3)cc1OC1CCCC1 [V10332, 3-(3-cyclopentyloxy-4-methoxy-benzyl)-8-isopropyl-3H-purin-6-ylamine]	860 ± 300	18600 ± 8500	9.5 ± 1.7	1000 ± 400	–	–
